Measured values published in a melting point compilation (Tetko et al.; mined from patent text by program, amines drawn as free bases though some values may be those of a salt).

Row | SMILES | melting point
1 | O=C1CNC(c2cccc(Cl)c2)=NN1 | 228 to 230 °C
2 | NC(=O)[C@H]1CN(c2ccc(C3=CCOCC3)c(F)c2)C(=O)O1 | 164 to 169 °C
3 | Oc1ccc(-c2cc3cc(F)ccc3o2)cc1 | 202 to 204 °C
4 | O=c1[nH]c2ccccc2c(=O)c2cc(Cl)ccc12 | 290 to 295 °C
5 | CN/C(=C1/Sc2ccccc2C1=O)c1ccccc1 | 154 to 155 °C
6 | CN(C)c1ccccc1Sc1nc2ccccc2[nH]1 | 148 to 149 °C
7 | COn1cc(-c2ccccc2)c(=O)c(-c2ccccc2)c1 | 165 °C
8 | COC(=O)c1ccc(C(O)c2cc3cc(C(F)(F)F)ccc3n2S(=O)(=O)c2ccc3c(c2)N(C)CCO3)cc1 (stereo not drawn) | 80 °C
9 | COC(=O)c1ccc(-c2nnc(-c3ccc(C(F)(F)F)cc3)o2)c(N)c1 | 237 to 238 °C
10 | O=C(Nc1cc(-c2nc3ccccc3[nH]2)ccn1)c1ccccc1 | 145 to 146 °C
11 | COc1cc2cn(N3C(C)CCCC3C)nc2cc1OC (stereo not drawn) | 162 to 163 °C
12 | Clc1cc2ccccc2cn1 | < 50 °C
13 | CC(C)Oc1ccc(Nc2nc(=O)n(C(C)C)c(=O)n2Cc2ccc(Cl)cc2)cc1Cl | 167 °C
14 | O=C(O)c1cc(F)c(C(F)(F)F)cc1[N+](=O)[O-] | 142 to 145 °C
15 | Cc1ccnc(Sc2cnc(N)s2)n1 | 158 to 159 °C
16 | Cc1cc(=O)n(-c2ccccc2)c2[nH]n(-c3ccccc3)c(=O)c12 | 145 to 147 °C
17 | CN1CC(c2ccc(OCc3ccc(F)cc3)cn2)=C(O)C1=O | 210 to 211 °C
18 | O=C1NCC2(CCNCC2)O1 | 95 to 96 °C
19 | CC(=O)c1cccc([N+](=O)[O-])c1Cl | 41 to 43 °C
20 | Cc1cccc(-c2nc(N)c3ccccc3n2)n1 | 201 °C

Row | SMILES | melting point
21 | Oc1ccc(Oc2ccc3ccccc3n2)cc1 | 177 °C
22 | Cc1cc(C)c(-n2ccc3c(OCc4ccc(C(F)(F)F)cc4)nn(C)c(=O)c32)c(C)c1 | 178 to 180 °C
23 | CCOc1ccc2nc(COc3ccc(CC4SC(=O)N(C(c5ccccc5)(c5ccccc5)c5ccccc5)C4=O)cc3)n(C)c2n1 (stereo not drawn) | 88 to 100 °C
24 | O=C(c1ccccc1)c1cnn2c(-c3ccncc3)ccnc12 | 185 to 186 °C
25 | CC(C#Cc1ccc2c(c1)CCN(Cc1ccc(-c3ccc(F)cc3)cn1)C2=O)N(O)C(N)=O (stereo not drawn) | 118 to 120 °C
26 | Cn1cc(-c2cccc(Br)c2)c(=O)c(-c2ccccc2Cl)c1 | 177 to 179 °C
27 | COc1ncc(C(F)(F)F)cc1-c1cccn2nc(Cl)nc12 | 183 to 185 °C
28 | CC(C)[Si](C#Cc1c2cc3ccccc3cc2c(C#C[Si](C(C)C)(C(C)C)C(C)C)c2cc3ccccc3cc12)(C(C)C)C(C)C | 210 °C
29 | CS(=O)(=O)Nc1cccc(C=C2c3ccc(Cl)cc3CCc3cc(Cl)ccc32)c1 | 182 °C
30 | CCC(C)(C)c1cc(-n2nc3ccccc3n2)c(O)c(C(C)(C)CC)c1 | 77 to 79 °C
31 | COc1cccc2c1S(=O)(=O)c1ccccc1C2(CCOS(C)(=O)=O)CCOS(C)(=O)=O | 200 to 202 °C
32 | O=C(O)c1cc(-c2ccc(Cl)cc2)nc(-c2ccc(Oc3ccc(F)cc3)cc2)c1 | 201 to 202 °C
33 | O=C(Cn1c(-c2ccc(Br)cc2)nc2cccnc21)Nc1ccccc1Cl | 230 to 232 °C
34 | COc1ccc(C(=O)Nc2ccccc2)cc1NCc1ccc(C#N)cc1 | 130 to 133 °C
35 | O=C1CCC(c2c(-c3ccccc3)nn3ccccc23)=NN1 | 187 to 189 °C
36 | COc1ccc(-c2cc3ccccc3[nH]2)cc1NC(=S)N[C@H](C)c1ccccc1 | 179 to 181 °C
37 | Nc1nc2ccccc2n1-c1ccc(I)cc1 | 212 to 214 °C
38 | O=S(=O)(NCCc1cccnc1)c1ccc(Cl)cc1 | 143 to 145 °C
39 | O=S(=O)(Cl)c1nc2nc(CF)cc(Cl)n2n1 | 92 to 98 °C
40 | Cc1ccc(S(=O)(=O)OCCN2C(=O)c3cccc4cc5ccccc5c(c34)C2=O)cc1 | 240 °C

Row | SMILES | melting point
41 | COc1cc(N)ccc1NC1=CC(=O)C(N)=CC1=O | 267 °C
42 | C[C@]1(CN2CCN(c3ccc(OC(F)(F)F)cc3)CC2)Cn2cc([N+](=O)[O-])nc2O1 | 129 to 130 °C
43 | Fc1ccc(N2CCN(Cc3c[nH]c4ncccc34)CC2)cc1 | 214 to 216 °C
44 | COc1ccc(C2c3cc(OC)c(OC)cc3CCN2C(=O)NCCN(C(C)C)C(C)C)cc1OC (stereo not drawn) | 114 to 115 °C
45 | Cc1ccc2nc(CCl)cn2c1 | 88 to 89.2 °C
46 | Fc1ccc(C(Cl)=NNc2ccccc2)cc1 | 118 to 120 °C
47 | COc1cc(-c2ccccc2)c(OC)cc1Nc1ncnc2cc(OC)c(OC)cc12 | 226 to 229 °C
48 | Cc1cc([N+](=O)[O-])ccc1Oc1ccc(C(C)(C)c2cccc(C(C)(C)c3ccc(Oc4ccc([N+](=O)[O-])cc4C)cc3)c2)cc1 | 116 to 118 °C
49 | Oc1cccc2c1OCCCO2 | 112 to 114 °C
50 | O=C1CCC2=C(c3ccc(Cl)cc3)c3ccccc3C2N1 (stereo not drawn) | 236 to 238 °C
51 | O=C1CN(c2cccc(Oc3ccccc3)c2)NC(=O)N1 | 172 to 173 °C
52 | CCn1c(C)nc2cc(S(=O)(=O)c3cccc4cnccc34)c([N+](=O)[O-])cc21 | 245 to 250 °C
53 | Cc1ccc(-c2ccc(C(=O)Nc3ccc4cc(CN5CCCC5)cnc4c3C)cc2F)cc1 | 193 to 194 °C
54 | CS(=O)c1ccc(-c2coc3ccc(-c4nnc(N)o4)cc23)cc1 (stereo not drawn) | 284 to 285 °C
55 | CCCCCc1cc(O)c2c(c1)OC(C)(C)C1=C2CC(C)(C)S1 | 109 to 110 °C
56 | COCn1c(-c2ccncc2)c(C)c(CO)c1-c1ccncc1 | 181 to 183 °C
57 | O=S(=O)(c1ccc(N2CCCCC2)cc1)N1CCCC1=S | 195 to 200 °C
58 | O=S(=O)(c1cccc2ccccc12)c1n[nH]c2ccc(OCC3CCCNC3)cc12 (stereo not drawn) | 168 to 170 °C

The remaining lines, values ahead:

Row | melting point | SMILES
59 | 94 to 97 °C | CCCC1C/C(=C\C(=O)NC2CC2)c2cc(F)ccc21 (stereo not drawn)
60 | 155 to 165 °C | CCCC(=O)NS(=O)(=O)c1ccc(C(=O)C=Cc2cc(-c3cc4ccccc4[nH]3)c(OC)cc2OC)cc1
61 | 137 to 140 °C | CCCCn1c2c(c(=O)n(CCCC)c1=O)CN(S(=O)(=O)Cc1ccccc1)N2
62 | 223 °C | CCc1ccnc(C(=O)c2[nH]c3ccc(OC(F)(F)F)cc3c2CC(=O)O)c1
63 | 104 to 106 °C | Cc1oc(-c2ccccc2)nc1CCSc1ccc(OC(C)(C)C(=O)O)cc1
64 | 123 to 125 °C | Cc1ccccc1Sc1cccc(C(C)C(=O)O)c1O (stereo not drawn)
65 | 60 to 63 °C | CS(=O)(=O)c1ccc(C(CC2CCCC2)C(N)=O)cc1Br (stereo not drawn)
66 | 108 to 110 °C | CC(=O)c1ccc(OCCCN2CCC(c3noc4cc(F)ccc34)CC2)c(CC(N)=O)c1
67 | 173 to 174 °C | CCCc1nsc(NC(=O)NC)c1C(=O)OCC
68 | 171 to 172 °C | O=C(NCCO)c1cccc(-c2ccc3c(c2)C(Oc2ccc(Cl)cc2Cl)CCC3)c1 (stereo not drawn)
69 | 164 to 165 °C | CC(=O)OCC(=O)C1=CCC2C3CCC4=CC(=O)C=CC4(C)C34OC4CC12C (stereo not drawn)
70 | 163 to 164 °C | CCn1c(COC(=O)NC(C)=O)nc(C(C)C)c1Sc1cc(Cl)cc(Cl)c1
71 | 202 °C | CCOC(=O)C(C)(C)NC(=O)c1ccc(S(=O)(=O)n2c(=O)n(C3CCCCC3)c3cc(OCC)ccc32)c(OC)c1
72 | 162 to 163 °C | CC1(CO)Cn2cc([N+](=O)[O-])nc2O1 (stereo not drawn)
73 | 144 to 146 °C | O=C(O)COc1c(I)cc(C(=O)c2c(Cc3ccccc3)oc3ccccc23)cc1I
74 | 192 to 194 °C | CCC(=O)Oc1cc(-c2nc3cc(C(=O)O)ccc3oc2=O)cc([N+](=O)[O-])c1OC(=O)CC
75 | 188 to 191 °C | COC(=O)N(C)CCc1ccc2[nH]c(C)c(S(=O)(=O)c3ccccc3)c2c1
76 | 175 to 177 °C | CNC(=O)N(O)CCCNC(=O)c1cccc(Oc2ccccc2)c1
77 | 145 to 147 °C | CC(C)c1cccc(C(C)C)c1NC(=O)CC(=O)C1(c2ccccc2)CCCC1
78 | 143 to 145 °C | CC(C(=O)NC(=O)OCC(F)(F)F)(c1ccccc1)c1ccccc1

Row | melting point | SMILES
79 | 239 to 240 °C | CN(C)c1nc(NS(=O)(=O)c2ccc(N)cc2)cc(N2CCC2)n1
80 | 151 to 153 °C | CC(C)(C)OC(=O)Nc1cccc(C(=O)OCc2ccccc2)c1
81 | 145 to 158 °C | CN1CCCCC1=NC(=O)Nc1ccccc1
82 | 89 to 91 °C | CC(=O)OCCN1CCNC1=Nc1ccccc1N1CCOCC1
83 | 143 to 146 °C | CCCc1nn(C)c2c(=O)[nH]c(-c3ccccc3OCC)nc12
84 | 140 °C | COc1ccc2ccc(N3C(=O)c4ccccc4C3CC(=O)CCN(C)C)nc2n1 (stereo not drawn)
85 | 106 to 108 °C | COC(=O)c1cc(Br)c(O)c(C(C)=O)c1
86 | 189 to 191 °C | CN1C(C)(C)CC(OC(=O)NNC(=O)OC2CC(C)(C)N(C)C(C)(C)C2)CC1(C)C
87 | 82 to 83 °C | COC(=O)COc1cccc2c1CCCC2=O
88 | 205 to 206 °C | Cc1ccc(C(=O)NC(NC(=S)Nc2ccccc2)C(F)(F)F)cc1 (stereo not drawn)
89 | 174 °C | CCC(O)(CC(=O)OC(C)(C)C)c1ccn(Cc2cc3cc(OCc4ccccc4)c(F)cc3nc2I)c(=O)c1 (stereo not drawn)
90 | 48 to 50 °C | CC#CCOc1ccc(S(=O)(=O)N(C)C(C(=O)NO)c2ccc(OCCCNC(=O)OCc3ccccc3)cc2)cc1 (stereo not drawn)
91 | 163 to 164 °C | Cc1cc(NC(=O)c2cn(-c3ccccc3)c3ccccc3c2=O)no1
92 | 157 to 158 °C | Cc1nc(N2CCN(Cc3ccccc3)C2=O)sc1C(=O)NCc1ccc(F)cc1F
93 | 212 to 214 °C | COC(=O)c1cccc2c(C#N)c[nH]c12
94 | 92 to 97 °C | COc1ccc(C(C)=O)cc1NC(=O)C(C)CCl (stereo not drawn)
95 | 225 to 226 °C | COc1ccc(CNc2c(NC(C)(C)C)c(=O)c2=O)c(OC)c1
96 | 230 to 232 °C | COc1ccc(C(=O)Nc2ccncc2)c2c3ccccc3n(Cc3ccc(F)cc3)c12
97 | 49 °C | CCOC(=O)CNc1ccc2c(c1)CCC2
98 | 180 to 181 °C | COc1cc(CC(=O)NCCOc2ccc(C(=O)O)cc2OC)ccc1NC(=O)Nc1ccccc1C
